The results in this text go back to ChEMBL document CHEMBL1130500 (Bioorg Med Chem Lett, 1997).

Each structure is given as a SMILES string.

Assay [1] has as its target T1, Cholecystokinin receptor type A (Rattus norvegicus, UniProt P30551).
T1 sequence (P30551 whole entry): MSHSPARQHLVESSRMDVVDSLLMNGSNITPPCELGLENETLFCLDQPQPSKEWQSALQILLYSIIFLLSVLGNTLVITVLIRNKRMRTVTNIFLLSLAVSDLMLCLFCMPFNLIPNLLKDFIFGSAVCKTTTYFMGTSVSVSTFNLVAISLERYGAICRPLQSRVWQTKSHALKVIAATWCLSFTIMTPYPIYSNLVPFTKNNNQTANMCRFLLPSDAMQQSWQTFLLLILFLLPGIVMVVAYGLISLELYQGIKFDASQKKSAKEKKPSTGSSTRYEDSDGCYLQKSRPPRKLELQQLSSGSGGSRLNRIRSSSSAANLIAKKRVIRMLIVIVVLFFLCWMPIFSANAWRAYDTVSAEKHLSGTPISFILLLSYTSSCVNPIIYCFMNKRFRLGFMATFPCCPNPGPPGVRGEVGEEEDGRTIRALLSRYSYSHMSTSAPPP

For assay [2], the target named is T2, Cholecystokinin receptor type A (Rattus norvegicus) (UniProt P30551).
T2 sequence (whole entry): T1 sequence (P30551 whole entry)
The following applies: 1 uM.

Assay [3] deals with T3, Gastrin/cholecystokinin type B receptor (Mus musculus) (UniProt P56481).
T3 sequence (whole entry): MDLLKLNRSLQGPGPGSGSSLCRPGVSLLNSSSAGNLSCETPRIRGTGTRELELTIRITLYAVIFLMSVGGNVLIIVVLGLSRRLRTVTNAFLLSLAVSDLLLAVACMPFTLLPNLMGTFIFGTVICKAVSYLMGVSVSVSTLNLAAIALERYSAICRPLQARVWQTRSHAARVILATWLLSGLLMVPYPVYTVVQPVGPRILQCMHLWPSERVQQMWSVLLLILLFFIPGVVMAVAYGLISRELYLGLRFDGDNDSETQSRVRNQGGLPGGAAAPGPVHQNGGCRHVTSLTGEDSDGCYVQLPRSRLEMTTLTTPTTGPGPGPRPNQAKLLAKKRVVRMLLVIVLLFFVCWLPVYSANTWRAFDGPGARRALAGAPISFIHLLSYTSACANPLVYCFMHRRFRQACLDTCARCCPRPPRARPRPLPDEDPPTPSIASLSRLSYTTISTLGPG
It counts as tissue-based. The following applies: Cerebral cortex; 10 uM.

The target of assay [4] is T2, Cholecystokinin receptor type A (Rattus norvegicus). The following applies: 10 uM.
For assay [5], the target named is T3, Gastrin/cholecystokinin type B receptor (Mus musculus). The format is tissue-based. The following applies: Cerebral cortex; 1 uM.

By IC50 is commonly meant the concentration that inhibits the measured activity by half. In turn, `O=C(O)CCC(=O)N[C@@H](CNC(=O)C(Cc1c[nH]c2ccc(F)cc12)NC(=O)OC1C2CC3CC(C2)CC1C3)c1ccccc1` (some centres undefined) gave a concentration for half-maximal inhibition (IC50) in assay [1] of 1910 nM.
Molecule `CC(Cc1ccc2c(c1)C(C)(C)CCC2(C)C)(NC(=O)OC1C2CC3CC(C2)CC1C3)C(=O)NCCc1ccccc1` (centres undefined) gave a half-maximal inhibitory concentration (IC50) in assay [1] of 19800 nM.
In turn, `O=C(NC1(C(=O)NCCc2ccccc2)CC2(Cc3cccc4cccc(c34)C2)C1)OC1C2CC3CC(C2)CC1C3` (centres undefined) had an IC50 in assay [1] of 7220 nM.
In general, inhibition refers to how much of the control response was suppressed. Higher therefore signals strong suppression. `COc1ccc(CC(C)(NC(=O)OC2C3CC4CC(C3)CC2C4)C(=O)N[C@H](CO)[C@H](O)c2ccccc2)cc1` (some centres undefined) had an inhibition in assay [2] of 43%.
In assay [1], `CC(Cc1c[nH]c2ccc(F)cc12)(NC(=O)OC1C2CC3CC(C2)CC1C3)C(=O)NC[C@H](NC(=O)CCC(=O)O)c1ccccc1` (some centres undefined) had an IC50 of 2180 nM.
On to `CC(Cc1ccc(Oc2ccccc2)cc1)(NC(=O)OC1C2CC3CC(C2)CC1C3)C(=O)N[C@H](CO)[C@H](O)c1ccccc1` (some centres undefined), for which the midpoint of inhibition in assay [1], the IC50, lay at 616 nM. This IC50 is about 3.5-fold lower than that of the molecule before.
Same read-out and setting: as for `Cc1noc(C)c1CC(C)(NC(=O)OC1C2CC3CC(C2)CC1C3)C(=O)NCCc1ccccc1` (centres undefined), the figure is 6940 nM.
In the case of `Cc1noc(C)c1-c1nc(CC(C)(NC(=O)OC2C3CC4CC(C3)CC2C4)C(=O)NCCc2ccccc2)no1` (centres undefined), the results for the inhibition in assay [3] and in assay [4] were 28% and 20%, respectively.
With `CC(CCCN)(NC(=O)OC1C2CC3CC(C2)CC1C3)C(=O)NCCc1ccccc1` (centres undefined), the inhibition in assay [5] stood at 3%.
As to `C[C@@](Cc1c[nH]c2ccccc12)(NC(=O)OC1C2CC3CC(C2)CC1C3)C(=O)N[C@H](CO)[C@H](O)c1ccccc1` (some centres undefined), half-maximal inhibition in assay [1] (IC50) was put at 681 nM.
Take `CC(Cc1c[nH]c2ccc(F)cc12)(NC(=O)OC1C2CC3CC(C2)CC1C3)C(=O)NC[C@H](NC(=O)CCC(=O)OCc1ccccc1)c1ccccc1` (some centres undefined): the IC50 in assay [1] is 2650 nM.
In assay [1], `CN(C)C(=O)c1oc2ccccc2c1CC(C)(NC(=O)OC1C2CC3CC(C2)CC1C3)C(=O)NCCc1ccccc1` (centres undefined) came in with an IC50 of 65 nM.
Molecule `O=C(NC1(C(=O)NCCc2ccccc2)Cc2ccccc2C1)OC1C2CC3CC(C2)CC1C3` (centres undefined) had an inhibition in assay [4] of 22%.
On to `CC(CCCN1C(=O)c2ccccc2C1=O)(NC(=O)OC1C2CC3CC(C2)CC1C3)C(=O)NCCc1ccccc1` (centres undefined), for which the inhibition in assay [5] was found to be 8%.
Regarding `O=C(CCC(=O)OCc1ccccc1)N[C@@H](CNC(=O)C(Cc1c[nH]c2ccc(F)cc12)NC(=O)OC1C2CC3CC(C2)CC1C3)c1ccccc1` (some centres undefined), inhibition in assay [1] was half-maximal at 583 nM (IC50).
With `CC(=O)Nc1nc(CC(C)(NC(=O)OC2C3CC4CC(C3)CC2C4)C(=O)NCCc2ccccc2)cs1` (centres undefined), inhibition in assay [1] was half-maximal at 5350 nM (IC50).
Take `C[C@](Cc1c[nH]c2ccc(F)cc12)(NC(=O)OC1C2CC3CC(C2)CC1C3)C(=O)NC[C@H](NC(=O)CCC(=O)O)c1ccccc1` (some centres undefined): the IC50 in assay [1] turned out to be 2860 nM.
Regarding `O=C(O)CCC(=O)N[C@@H](CNC(=O)C1(NC(=O)OC2C3CC4CC(C3)CC2C4)Cc2ccccc2C1)c1ccccc1` (some centres undefined), the IC50 in assay [1] was determined as 1350 nM.
